According to patent US20100292266A1, “Oxazolyl Piperidine Modulators of Fatty Acid Amide Hydrolase” (priority 2006, published 2010):

Target: T1, Rat FAAH (Rattus norvegicus, UniProt P97612)
T1 construct: expressed in transfected cells
T1 sequence (P97612 1-579): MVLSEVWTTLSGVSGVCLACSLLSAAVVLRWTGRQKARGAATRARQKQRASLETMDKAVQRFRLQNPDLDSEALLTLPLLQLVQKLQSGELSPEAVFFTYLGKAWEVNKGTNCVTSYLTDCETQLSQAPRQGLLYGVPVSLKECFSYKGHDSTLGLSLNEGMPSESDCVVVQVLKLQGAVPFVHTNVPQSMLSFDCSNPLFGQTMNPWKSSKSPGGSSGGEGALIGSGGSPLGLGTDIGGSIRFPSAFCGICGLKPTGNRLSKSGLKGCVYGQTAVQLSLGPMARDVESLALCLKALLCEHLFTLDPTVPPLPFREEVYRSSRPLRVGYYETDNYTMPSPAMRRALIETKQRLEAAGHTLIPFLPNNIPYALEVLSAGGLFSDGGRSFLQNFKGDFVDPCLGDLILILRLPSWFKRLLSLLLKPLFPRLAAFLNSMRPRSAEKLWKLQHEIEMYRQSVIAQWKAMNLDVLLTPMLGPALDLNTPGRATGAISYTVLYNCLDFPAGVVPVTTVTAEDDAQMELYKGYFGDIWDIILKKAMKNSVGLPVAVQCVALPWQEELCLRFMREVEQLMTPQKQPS
Assay: Assay Method 2: FAAH assay, 3H-anandamide hydrolysis in cell homogenate
Format: biochemical
Conditions: transfected SK-N-MC cell homogenate, 80 nM 3H-AEA, 1 h rt, > = solubility limit or highest concentration tested
Method: A. Transfection of Cells with Rat FAAH
(§1) A 10-cm tissue culture dish with a confluent monolayer of SK-N-MC cells was split 2 days (d) prior to transfection. Using sterile technique, the media was removed and the cells were detached from the dish by the addition of trypsin. One fifth of the cells were then placed onto a new 10-cm dish. Cells were grown in a 37° C. incubator with 5% CO2 in Minimal Essential Media Eagle with 10% Fetal Bovine Serum. After 2 d, cells were approximately 80% confluent. These cells were removed from the dish with trypsin and pelleted in a clinical centrifuge. The pellet was re-suspended in 400 μL complete media and transferred to an electroporation cuvette with a 0.4 cm gap between the electrodes. Supercoiled rat FAAH cDNA (1 μg) was added to the cells and mixed. The voltage for the electroporation was set at 0.25 kV, and the capacitance was set at 960 μF. After electroporation, the cells were diluted into complete media (10 mL) and plated onto four 10-cm dishes. Because of the variability in the efficiency of electroporation, four different concentrations of cells were plated. The ratios used were 1:20, 1:10, and 1:5, with the remainder of the cells being added to the fourth dish. The cells were allowed to recover for 24 h before adding the selection media (complete media with 600 μg/mL G418). After 10 d, dishes were analyzed for surviving colonies of cells. Dishes with well-isolated colonies were used. Cells from individual colonies were isolated and tested.
(§2) The assay mixture consisted of 50 μL of the cell homogenate, 10 μL of the test compound, and 40 μL of anandamide [1-^3H-ethanolamine] (^3H-AEA, Perkin-Elmer, 10.3 Ci/mmol), which was added last, for a final tracer concentration of 80 nM. The reaction mixture was incubated at it for 1 h. During the incubation, 96-well Multiscreen filter plates (catalog number MAFCNOB50; Millipore, Bedford, Mass., USA) were loaded with 25 μL of activated charcoal (Multiscreen column loader, catalog number MACL09625, Millipore) and washed once with 100 μL of MeOH. Also during the incubation, 96-well DYNEX MicroLite plates (catalog number NL510410) were loaded with 100 μL of MicroScint40 (catalog number 6013641, Packard Bioscience, Meriden, Conn., USA). After the 1 h incubation, 60 μL of the reaction mixture were transferred to the charcoal plates, which were then assembled on top of the DYNEX plates using Centrifuge Alignment Frames (catalog number MACF09604, Millipore). The unbound labeled ethanolamine . was centrifuged through to the bottom plate (5 min at 2000 rpm), which was preloaded with the scintillant, as described above. The plates were sealed and left at rt for 1 h before counting on a Hewlett Packard TopCount.
(§3) Where activity is shown as greater than (>) a particular value, the value is the solubility limit of the compound in the assay medium or the highest concentration tested in the assay.

SMILES	IC50 [nM]
O=C(c1ncco1)C1CCN(Cc2ccc(F)cc2)CC1 [Example 30, [1-(4-Fluoro-benzyl)-piperidin-4-yl]-oxazol-2-yl-methanone]	873
O=C(c1ncco1)C1CCN(Cc2cccc(C(F)(F)F)c2)CC1 [Example 18, Oxazol-2-yl-[1-(3-trifluoromethyl-benzyl)-piperidin-4-yl]-methanone]	96
COc1ccc2cc(CN3CCC(C(=O)c4ncco4)CC3)c(Cl)nc2c1 [Example 68, [1-(2-Chloro-7-methoxy-quinolin-3-ylmethyl)-piperidin-4-yl]-oxazol-2-yl-methanone]	511
O=C(c1ncco1)C1CCN(Cc2ccc(Cl)cc2)CC1 [Example 35, [1-(4-Chloro-benzyl)-piperidin-4-yl]-oxazol-2-yl-methanone]	40
O=C(c1ncco1)C1CCN(Cc2cccc3ccccc23)CC1 [Example 48, (1-Naphthalen-1-ylmethyl-piperidin-4-yl)-oxazol-2-yl-methanone]	63
CC(C)c1ccc(CN2CCC(C(=O)c3ncco3)CC2)cc1 [Example 86, [1-(4-Isopropyl-benzyl)-piperidin-4-yl]-oxazol-2-yl-methanone]	170
CC(C)COc1cccc(CN2CCC(C(=O)c3ncco3)CC2)c1 [Example 16, [1-(3-Isobutoxy-benzyl)-piperidin-4-yl]-oxazol-2-yl-methanone]	975
O=C(c1ncco1)C1CCN(Cc2ccc3cccc(Cl)c3n2)CC1 [Example 75, [1-(8-Chloro-quinolin-2-ylmethyl)-piperidin-4-yl]-oxazol-2-yl-methanone]	4
O=C(c1ncco1)C1CCN(Cc2cccc(F)c2)CC1 [Example 31, [1-(3-Fluoro-benzyl)-piperidin-4-yl]-oxazol-2-yl-methanone]	1400
O=C(c1ncco1)C1CCN(Cc2cccc(Br)c2)CC1 [Example 52, [1-(3-Bromo-benzyl)-piperidin-4-yl]-oxazol-2-yl-methanone]	200
O=C(c1ncco1)C1CCN(Cc2cnc3ccccc3n2)CC1 [Example 78, Oxazol-2-yl-(1-quinoxalin-2-ylmethyl-piperidin-4-yl)-methanone]	90
Cc1ccc2cc(CN3CCC(C(=O)c4ncco4)CC3)c(Cl)nc2c1 [Example 69, [1-(2-Chloro-7-methyl-quinolin-3-ylmethyl)-piperidin-4-yl]-oxazol-2-yl-methanone]	470
O=C(c1ncco1)C1CCN(Cc2ccc(C(F)(F)F)cc2)CC1 [Example 19]	15
O=C(c1ncco1)C1CCN(Cc2ccccc2Cl)CC1 [Example 33, [1-(2-Chloro-benzyl)-piperidin-4-yl]-oxazol-2-yl-methanone]	890
O=C(c1ncco1)C1CCN(C(=O)c2ccc3ccccc3c2)CC1 [Example 10, [1-(Naphthalene-2-carbonyl)-piperidin-4-yl]-oxazol-2-yl-methanone]	350
CS(=O)(=O)c1cc(Br)ccc1CN1CCC(C(=O)c2ncco2)CC1 [Example 25, [1-(4-Bromo-2-methanesulfonyl-benzyl)-piperidin-4-yl]-oxazol-2-yl-methanone]	23
CC(c1cccc(C(F)(F)F)c1)N1CCC(C(=O)c2ncco2)CC1 (stereo not shown) [Example 91, Oxazol-2-yl-{1-[1-(3-trifluoromethyl-phenyl)-ethyl]-piperidin-4-yl}-methanone]	370
COc1ccc(C(=O)N2CCC(C(=O)c3ncco3)CC2)cc1 [Example 9, [1-(4-Methoxy-benzoyl)-piperidin-4-yl]-oxazol-2-yl-methanone]	> 10000
Cc1ccc(CN2CCC(C(=O)c3ncco3)CC2)cc1 [Example 64, [1-(4-Methyl-benzyl)-piperidin-4-yl]-oxazol-2-yl-methanone]	484
O=C(c1ncco1)C1CCN(Cc2ccc3ccccc3c2O)CC1 [Example 47, [1-(1-Hydroxy-naphthalen-2-ylmethyl)-piperidin-4-yl]-oxazol-2-yl-methanone]	7

Target: T2, FAAH (Homo sapiens, UniProt O00519)
T2 sequence (O00519 1-579): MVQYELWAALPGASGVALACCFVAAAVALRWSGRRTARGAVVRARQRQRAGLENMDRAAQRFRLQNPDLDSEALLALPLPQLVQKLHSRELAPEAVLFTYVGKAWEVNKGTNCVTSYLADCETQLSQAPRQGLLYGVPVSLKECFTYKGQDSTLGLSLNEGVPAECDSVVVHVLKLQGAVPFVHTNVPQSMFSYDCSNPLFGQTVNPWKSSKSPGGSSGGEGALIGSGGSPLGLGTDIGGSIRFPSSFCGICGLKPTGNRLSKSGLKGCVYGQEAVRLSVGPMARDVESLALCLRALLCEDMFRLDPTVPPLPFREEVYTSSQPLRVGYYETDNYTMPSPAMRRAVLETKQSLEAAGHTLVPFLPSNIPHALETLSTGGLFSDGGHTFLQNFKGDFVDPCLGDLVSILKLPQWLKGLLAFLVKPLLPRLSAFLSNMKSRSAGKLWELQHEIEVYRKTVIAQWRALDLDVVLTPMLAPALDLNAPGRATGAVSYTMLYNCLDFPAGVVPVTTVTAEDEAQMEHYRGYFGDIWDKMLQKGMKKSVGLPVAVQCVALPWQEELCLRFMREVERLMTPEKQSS
Assay: Assay Method 1: FAAH assay, 3H-anandamide hydrolysis in cell homogenate
Format: biochemical
Set-up: expressed in transfected cells
Conditions: T84 or transfected SK-N-MC cell homogenate, 80 nM 3H-AEA, 1 h rt, > = solubility limit or highest concentration tested
Method: A. Transfection of Cells with Human FAAH
as §1, with “Supercoiled human” for “Supercoiled rat”
as §2, with “at rt” for “at it”, “ethanolamine” for “ethanolamine .”
as §3

SMILES	IC50 [nM]
O=C(c1ncco1)C1CCN(Cc2ccc(F)cc2)CC1 [Example 30, [1-(4-Fluoro-benzyl)-piperidin-4-yl]-oxazol-2-yl-methanone]	148
O=C(c1ncco1)C1CCN(Cc2cccc(C(F)(F)F)c2)CC1 [Example 18, Oxazol-2-yl-[1-(3-trifluoromethyl-benzyl)-piperidin-4-yl]-methanone]	51
COc1ccc2cc(CN3CCC(C(=O)c4ncco4)CC3)c(Cl)nc2c1 [Example 68, [1-(2-Chloro-7-methoxy-quinolin-3-ylmethyl)-piperidin-4-yl]-oxazol-2-yl-methanone]	294
O=C(c1ncco1)C1CCN(Cc2ccc(Cl)cc2)CC1 [Example 35, [1-(4-Chloro-benzyl)-piperidin-4-yl]-oxazol-2-yl-methanone]	19
O=C(c1ncco1)C1CCN(Cc2cccc3ccccc23)CC1 [Example 48, (1-Naphthalen-1-ylmethyl-piperidin-4-yl)-oxazol-2-yl-methanone]	101
CC(C)c1ccc(CN2CCC(C(=O)c3ncco3)CC2)cc1 [Example 86, [1-(4-Isopropyl-benzyl)-piperidin-4-yl]-oxazol-2-yl-methanone]	110
CC(C)COc1cccc(CN2CCC(C(=O)c3ncco3)CC2)c1 [Example 16, [1-(3-Isobutoxy-benzyl)-piperidin-4-yl]-oxazol-2-yl-methanone]	31
O=C(c1ncco1)C1CCN(Cc2ccc3cccc(Cl)c3n2)CC1 [Example 75, [1-(8-Chloro-quinolin-2-ylmethyl)-piperidin-4-yl]-oxazol-2-yl-methanone]	4
O=C(c1ncco1)C1CCN(Cc2cccc(F)c2)CC1 [Example 31, [1-(3-Fluoro-benzyl)-piperidin-4-yl]-oxazol-2-yl-methanone]	303
O=C(c1ncco1)C1CCN(Cc2cccc(Br)c2)CC1 [Example 52, [1-(3-Bromo-benzyl)-piperidin-4-yl]-oxazol-2-yl-methanone]	35
O=C(c1ncco1)C1CCN(Cc2cnc3ccccc3n2)CC1 [Example 78, Oxazol-2-yl-(1-quinoxalin-2-ylmethyl-piperidin-4-yl)-methanone]	30
Cc1ccc2cc(CN3CCC(C(=O)c4ncco4)CC3)c(Cl)nc2c1 [Example 69, [1-(2-Chloro-7-methyl-quinolin-3-ylmethyl)-piperidin-4-yl]-oxazol-2-yl-methanone]	585
O=C(c1ncco1)C1CCN(Cc2ccc(C(F)(F)F)cc2)CC1 [Example 19]	10
O=C(c1ncco1)C1CCN(Cc2ccccc2Cl)CC1 [Example 33, [1-(2-Chloro-benzyl)-piperidin-4-yl]-oxazol-2-yl-methanone]	156
O=C(c1ncco1)C1CCN(C(=O)c2ccc3ccccc3c2)CC1 [Example 10, [1-(Naphthalene-2-carbonyl)-piperidin-4-yl]-oxazol-2-yl-methanone]	28
CS(=O)(=O)c1cc(Br)ccc1CN1CCC(C(=O)c2ncco2)CC1 [Example 25, [1-(4-Bromo-2-methanesulfonyl-benzyl)-piperidin-4-yl]-oxazol-2-yl-methanone]	13
CC(c1cccc(C(F)(F)F)c1)N1CCC(C(=O)c2ncco2)CC1 (stereo not shown) [Example 91, Oxazol-2-yl-{1-[1-(3-trifluoromethyl-phenyl)-ethyl]-piperidin-4-yl}-methanone]	782
COc1ccc(C(=O)N2CCC(C(=O)c3ncco3)CC2)cc1 [Example 9, [1-(4-Methoxy-benzoyl)-piperidin-4-yl]-oxazol-2-yl-methanone]	7000
Cc1ccc(CN2CCC(C(=O)c3ncco3)CC2)cc1 [Example 64, [1-(4-Methyl-benzyl)-piperidin-4-yl]-oxazol-2-yl-methanone]	112
O=C(c1ncco1)C1CCN(Cc2ccc3ccccc3c2O)CC1 [Example 47, [1-(1-Hydroxy-naphthalen-2-ylmethyl)-piperidin-4-yl]-oxazol-2-yl-methanone]	4
